From patent publication US20210094933A1, “RAPAFUCIN DERIVATIVE COMPOUNDS AND METHODS OF USE THEREOF” (The Johns Hopkins University, priority 2019, published 2021)
Numbered stars: 1 amine (or outer) side, 2 acyl side, 3 side chain; on linkers, the order of the positions; unused ones are H or OH. Bridge positions count the residues as written; N and C are the ends. Square brackets hold non-standard residues; d marks the D form. Side chains are listed from the residue outwards. Peptide text beside a SMILES is read from it. * marks the point of attachment. X1 = COc1ccc(CC[C@@H](N[*:1])c2cccc(OCC(=O)[*:2])c2)cc1OC; X3 = COc1ccc(CC[C@H](O[*:2])c2cccc(OCC(=O)[*:1])c2)cc1OC; X2 = CN(CCC=CC(=O)OCC(C)(C)C(=O)C(=O)[*:2])[*:1]; 2Nal = N[C@@H](Cc1ccc2ccccc2c1)C(=O)O; dNMeNle = CCCC[C@@H](NC)C(=O)O; Pip = O=C(O)[C@@H]1CCCCN1; dNMeS = CN[C@H](CO)C(=O)O; dPip = O=C(O)[C@H]1CCCCN1; Morpholide = C1CN(*)CCO1; CO = O=C([*:1])[*:2]; Sar = CNCC(=O)O; tBu = CC(C)(C)*

What was measured:
Type in all cases: cell-based
[1] = Nucleoside uptake assay, single concentration (Rel.Uptake), response relative to DMSO; cell line indicated in each table; settings: 293 T cells, nucleoside uptake at single concentration
Experimental: Nucleoside Uptake Assay (uptake). Nuceloside uptake assays were performed with using 3H-Thymidine as described in Guo et al. (2018) Nat. Chem, 11:254-63. Specific cell lines are indicated in each assay and cultured in complete growth media. Activity is scored according to the IC50 values relative to DMSO control. “Low” indicates an IC50 greater than 600 nM, “Medium” indicates an IC50 between 300 nM and 600 nM “High” indicates an IC50 less than 300 nM. “Rel.Uptake” refers to uptake activity characterization relative to a single concentration assay. “Low” indicates a response greater than 0.6 times the activity relative to DMSO, “Medium” indicates a response between 0.6 and 0.3 times the activity relative to DMSO, “High” indicates a response less than 0.3 times the activity relative to DMSO.

H929 = assay: Cell proliferation assay (Prolif.), IC50 relative to DMSO control; settings: H929 cells; for Prolif, H929: IC50 class relative to DMSO control; for Prolif. H929: class relative to DMSO control
Experimental: (§1) Cell Proliferation Assay (Prolif.) Guo et al. (2018) Nat. Chem. 11:254-63. Specific cell lines are indicated in each assay and cultured in complete growth media. Activity is scored according to the IC50 values relative to DMSO control. “Low” indicates an IC50 greater than 600 nM, “Medium” indicates an IC50 between 300 nM and 600 nM “High” indicates an IC50 less than 300 nM. “Rel.Uptake” refers to uptake activity characterization relative to a single concentration assay. “Low” indicates a response greater than 0.6 times the activity relative to DMSO, “Medium” indicates a response between 0.6 and 0.3 times the activity relative to DMSO, “High” indicates a response less than 0.3 times the activity relative to DMSO.

[2] = Cell proliferation assay, single concentration, response relative to DMSO; cell line indicated in each table; settings: for Rel. Prolif., NCI-H929: NCI-H929 cells
Experimental: as §1

COc1ccc(CC[C@H]2OC(=O)[C@@H]3CCCCN3C(=O)C(=O)C(C)(C)COC(=O)C=CCCN(C)C(=O)[C@@H](Cc3ccccc3)NC(=O)CN(C)C(=O)[C@@H](Cc3ccccc3)NC(=O)[C@H](Cc3ccc(O)cc3)N(C)C(=O)COc3cccc2c3F)cc1OC [Compound 1579]
Rel. Uptake, 293 T [1]: medium
Prolif, H929 (H929): medium

COc1cc(CC[C@H]2OC(=O)[C@@H]3CCCCN3C(=O)C(=O)C(C)(C)COC(=O)C=CCCN(C)C(=O)[C@@H](Cc3ccccc3)NC(=O)CN(C)C(=O)[C@@H](Cc3ccccc3)NC(=O)[C@H](Cc3ccc(O)cc3)N(C)C(=O)COc3cccc2c3)c(OC)c(OC)c1 [Compound 1582]
Rel. Uptake, 293 T [1]: low
Prolif, H929 (H929): low

COc1ccc(CC[C@H]2OC(=O)[C@@H]3CN(C)CCN3C(=O)C(=O)C(C)(C)COC(=O)C=CCCN(C)C(=O)[C@@H](Cc3ccccc3)NC(=O)CN(C)C(=O)[C@@H](Cc3ccccc3)NC(=O)[C@H](Cc3ccc(O)cc3)N(C)C(=O)COc3cccc2c3)cc1OC [Compound 1574]
Rel. Uptake, 293 T [1]: low
Prolif, H929 (H929): low

COc1ccc(CC[C@H]2OC(=O)[C@@H]3CCCCN3C(=O)C(=O)C(C)(C)COC(=O)C=CCCN(C)C(=O)[C@@H](Cc3ccccc3)NC(=O)CN(C)C(=O)[C@@H](Cc3ccccc3)NC(=O)[C@H](Cc3ccc(OC(=O)N4CCOCC4)cc3)N(C)C(=O)COc3cc(F)cc2c3)cc1OC [Compound 868]
Rel. Prolif., NCI-H929 [2]: low
Prolif. H929 (H929): low

COc1cc(CC[C@H]2OC(=O)[C@@H]3CCCCN3C(=O)C(=O)C(C)(C)COC(=O)C=CCCN(C)C(=O)[C@@H](Cc3ccccc3)NC(=O)CN(C)C(=O)[C@@H](Cc3ccccc3)NC(=O)[C@H](Cc3ccc(O)cc3)N(C)C(=O)COc3cccc2c3)cc(OC)c1OC [Compound 1566]
Rel. Uptake, 293 T [1]: medium
Prolif, H929 (H929): medium

COc1ccc(CC[C@H]2OC(=O)[C@@H]3CCCCN3C(=O)C(=O)C(C)(C)COC(=O)C=CCCN(C)C(=O)[C@@H](Cc3ccccc3)NC(=O)CN(C)C(=O)[C@@H](Cc3ccccc3)NC(=O)[C@H](Cc3ccc(O)cc3)N(C)C(=O)COc3cc(F)cc2c3)cc1OC [Compound 1576]
Rel. Uptake, 293 T [1]: medium
Prolif, H929 (H929): medium

COc1cc(O)c(CC[C@H]2OC(=O)[C@@H]3CCCCN3C(=O)C(=O)C(C)(C)COC(=O)C=CCCN(C)C(=O)[C@@H](Cc3ccccc3)NC(=O)CN(C)C(=O)[C@@H](Cc3ccccc3)NC(=O)[C@H](Cc3ccc(O)cc3)N(C)C(=O)COc3cccc2c3)cc1OC [Compound 1568]
Rel. Uptake, 293 T [1]: low
Prolif, H929 (H929): low

COc1ccc(CC[C@H]2OC(=O)[C@@H]3CCCCN3C(=O)C(=O)C(C)(C)COC(=O)C=CCCN(C)C(=O)[C@@H](Cc3ccccc3)NC(=O)CN(C)C(=O)[C@@H](Cc3ccccc3)NC(=O)[C@H](Cc3ccc(O)cc3)N(C)C(=O)COc3ccc(F)c2c3)cc1OC [Compound 1575]
Rel. Uptake, 293 T [1]: low
Prolif, H929 (H929): low

COc1ccc(CC[C@H]2OC(=O)[C@@H]3CCCCN3C(=O)C(=O)C(C)(C)COC(=O)C=CCCN(C)C(=O)[C@@H](Cc3ccccc3)NC(=O)CN(C)C(=O)[C@@H](Cc3ccccc3)NC(=O)[C@H](Cc3ccc(O)cc3)N(C)C(=O)COc3cncc2c3)cc1OC [Compound 1580]
Rel. Uptake, 293 T [1]: low
Prolif, H929 (H929): low

COc1ccc(CC[C@H]2OC(=O)[C@@H]3CCCCN3C(=O)C(=O)C(C)(C)COC(=O)C=CCCN(C)C(=O)[C@@H](Cc3ccccc3)NC(=O)CN(C)C(=O)[C@@H](Cc3ccccc3)NC(=O)[C@H](Cc3ccc(O)cc3)N(C)C(=O)COc3cccc2c3)c(F)c1OC [Compound 1571]
Rel. Uptake, 293 T [1]: low
Prolif, H929 (H929): low

COc1cc(OC)c(OC)cc1CC[C@H]1OC(=O)[C@@H]2CCCCN2C(=O)C(=O)C(C)(C)COC(=O)C=CCCN(C)C(=O)[C@@H](Cc2ccccc2)NC(=O)CN(C)C(=O)[C@@H](Cc2ccccc2)NC(=O)[C@H](Cc2ccc(O)cc2)N(C)C(=O)COc2cccc1c2 [Compound 1581]
Rel. Uptake, 293 T [1]: medium
Prolif, H929 (H929): medium

COc1ccc(CC[C@H]2OC(=O)[C@@H]3CCCCN3C(=O)C(=O)C(C)(C)COC(=O)C=CCCN(C)C(=O)[C@@H](Cc3ccccc3)NC(=O)CN(C)C(=O)[C@@H](Cc3ccccc3)NC(=O)[C@H](Cc3ccc(O)cc3)N(C)C(=O)COc3cccc2c3)c(O)c1OC [Compound 1584]
Rel. Uptake, 293 T [1]: low
Prolif, H929 (H929): low

COc1cc(CC[C@H]2OC(=O)[C@@H]3CCCCN3C(=O)C(=O)C(C)(C)COC(=O)C=CCCN(C)C(=O)[C@@H](Cc3ccccc3)NC(=O)CN(C)C(=O)[C@@H](Cc3ccccc3)NC(=O)[C@H](Cc3ccc(O)cc3)N(C)C(=O)COc3cccc2c3)cc(F)c1OC [Compound 1569]
Rel. Uptake, 293 T [1]: low
Prolif, H929 (H929): low

COc1ccc(CC[C@H]2OC(=O)[C@@H]3CCCCN3C(=O)C(=O)C(C)(C)COC(=O)C=CCCN(C)C(=O)[C@@H](Cc3ccccc3)NC(=O)CN(C)C(=O)[C@@H](Cc3ccccc3)NC(=O)[C@H](Cc3ccc(O)cc3)N(C)C(=O)COc3cccc2c3)c(OC)c1OC [Compound 1577]
Rel. Uptake, 293 T [1]: medium
Prolif, H929 (H929): medium

COc1ccc(CC[C@H]2OC(=O)[C@@H]3CNCCN3C(=O)C(=O)C(C)(C)COC(=O)C=CCCN(C)C(=O)[C@@H](Cc3ccccc3)NC(=O)CN(C)C(=O)[C@@H](Cc3ccccc3)NC(=O)[C@H](Cc3ccc(O)cc3)N(C)C(=O)COc3cccc2c3)cc1OC [Compound 1573]
Rel. Uptake, 293 T [1]: low
Prolif, H929 (H929): low

COc1cc(F)c(CC[C@H]2OC(=O)[C@@H]3CCCCN3C(=O)C(=O)C(C)(C)COC(=O)C=CCCN(C)C(=O)[C@@H](Cc3ccccc3)NC(=O)CN(C)C(=O)[C@@H](Cc3ccccc3)NC(=O)[C@H](Cc3ccc(O)cc3)N(C)C(=O)COc3cccc2c3)cc1OC [Compound 1570]
Rel. Uptake, 293 T [1]: medium
Prolif, H929 (H929): medium

COc1ccc(CC[C@H]2NC(=O)[C@@H]3CCCCN3C(=O)C(=O)C(C)(C)COC(=O)C=CCCN(C)C(=O)[C@@H](Cc3ccccc3)NC(=O)CN(C)C(=O)[C@@H](Cc3ccccc3)NC(=O)[C@H](Cc3ccc(OC(=O)N4CCOCC4)cc3)NC(=O)COc3cccc2c3)cc1OC [Compound 877] (cyclo([Pip][X1]Y([CO-Morpholide])[dF][Sar][dF][X2]))
Rel. Prolif., NCI-H929 [2]: low
Prolif. H929 (H929): low

COc1cc(CC[C@H]2OC(=O)[C@@H]3CCCCN3C(=O)C(=O)C(C)(C)COC(=O)C=CCCN(C)C(=O)[C@@H](Cc3ccccc3)NC(=O)CN(C)C(=O)[C@@H](Cc3ccccc3)NC(=O)[C@H](Cc3ccc(O)cc3)N(C)C(=O)COc3cccc2c3)cc(O)c1OC [Compound 1567]
Rel. Uptake, 293 T [1]: medium
Prolif, H929 (H929): medium

COc1ccc(OC)c(OC)c1CC[C@H]1OC(=O)[C@@H]2CCCCN2C(=O)C(=O)C(C)(C)COC(=O)C=CCCN(C)C(=O)[C@@H](Cc2ccccc2)NC(=O)CN(C)C(=O)[C@@H](Cc2ccccc2)NC(=O)[C@H](Cc2ccc(O)cc2)N(C)C(=O)COc2cccc1c2 [Compound 1583]
Rel. Uptake, 293 T [1]: low
Prolif, H929 (H929): low

CCCC[C@@H]1C(=O)N[C@@H](Cc2ccc3ccccc3c2)C(=O)N(C)[C@H](COC(C)(C)C)C(=O)NCC(=O)N(C)CCC=CC(=O)OCC(C)(C)C(=O)C(=O)N2CCCC[C@@H]2C(=O)O[C@@H](CCc2ccc(OC)c(OC)c2)c2cccc(c2)OCC(=O)N(C)CC(=O)N1C [Compound 1] ([Sar][dNMeNle][2Nal][dNMeS](tBu)G[X2][dPip]; linker N-C via X3)
Rel. Prolif., A549 ([2]; A549 cells): low

COc1ccc(CC[C@H]2OC(=O)[C@@H]3CCCCN3C(=O)C(=O)C(C)(C)COC(=O)C=CCCN(C)C(=O)[C@@H]3CCCN3C(=O)[C@H](COC(C)(C)C)N(C)C(=O)[C@H](c3ccccc3)NC(=O)[C@H](C)N(C)C(=O)COc3cc(F)cc2c3)cc1OC [Compound 1596]
Rel. Uptake, 293 T [1]: Low (“Low” indicates a response greater than 0.6 times the activity relative to DMSO)

COc1ccc(CC[C@H]2OC(=O)[C@@H]3CCCCN3C(=O)C(=O)C(C)(C)COC(=O)C=CCCN(C)C(=O)[C@@H]3CCCN3C(=O)[C@H](COC(C)(C)C)N(C)C(=O)[C@@H](c3ccccc3)NC(=O)[C@H](C)N(C)C(=O)COc3cc(F)cc2c3)cc1OC [Compound 1595]
Rel. Uptake, 293 T [1]: Low (“Low” indicates a response greater than 0.6 times the activity relative to DMSO)

COc1ccc(CC[C@H]2OC(=O)[C@@H]3CCCCN3C(=O)C(=O)C(C)(C)COC(=O)C=CCCN(C)C(=O)[C@@H](Cc3ccccc3)NC(=O)CN(C)C(=O)[C@@H](Cc3ccccc3)NC(=O)[C@H](Cc3ccc(O)cc3)N(C)C(=O)COc3cc2ccc3F)cc1OC [Compound 1578]
Rel. Uptake, 293 T [1]: low
Prolif, H929 (H929): low

COc1ccc(CC[C@H]2OC(=O)[C@@H]3CN(C(=O)OCC4c5ccccc5-c5ccccc54)CCN3C(=O)C(=O)C(C)(C)COC(=O)C=CCCN(C)C(=O)[C@@H](Cc3ccccc3)NC(=O)CN(C)C(=O)[C@@H](Cc3ccccc3)NC(=O)[C@H](Cc3ccc(O)cc3)N(C)C(=O)COc3cccc2c3)cc1OC [Compound 1572]
Rel. Uptake, 293 T [1]: low
Prolif, H929 (H929): low
